Measurements reported in patent US8877707B2, “Inhibitors of HCV NS5A” (Presidio Pharmaceuticals, Inc., priority 2010, dated 2014).
Read-outs that look alike come from different tables or passages of the source.

Test system: HCV genotype 1b replicon in Huh 7 cells
Assay: HCV replicon assay (1b_Huh-Luc/Neo-ET cell line, luciferase readout)
Type: cell-based
Settings: Hepatitis C virus, read-out: Inhibition of HCV genotype 1b
Procedure, shortened: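 Replicon level was read as luciferase signal after 72 h compound exposure, triplicate wells, starting the day after cells were plated. Cell line: 1b_Huh-Luc/Neo-ET. Values normalised to control as percent, and EC50 fitted with a variable-slope sigmoid; determinations repeated.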

[1] = Table 1, genotype 1b replicon, Huh 7 cells, 72 h, luciferase

| SMILES | EC50 [1] [nM] | EC50 (Huh-7, HCV 1b replicon) [nM] | also measured |
| --- | --- | --- | --- |
| COC(=O)N[C@H](C(=O)N1CCC[C@H]1c1ncc(-c2ccc(-c3nc4cc(-c5cnc([C@@H]6CCCN6C(=O)[C@@H](NC(=O)OC)[C@@H](C)OC)[nH]5)ccc4o3)cc2)[nH]1)[C@@H](C)OC [compound 238] | < 1 | – | – |
| COC(=O)N[C@H](C(=O)N1CCOC[C@H]1c1ncc(-c2ccc3cc(-c4ccc(-c5cnc([C@@H]6CCCN6C(=O)[C@H](NC(=O)OC)c6ccccc6)[nH]5)cc4)ccc3c2)[nH]1)[C@@H](C)OC [compound 327] | – | – | EC50 (Table 2, genotype 1b replicon, Huh 7 cells, 72 h, luciferase): < 1 nM |
| COC(=O)N[C@H](C(=O)N1CCC[C@H]1c1ncc(-c2ccc3cc(-c4ccc(-c5cnc([C@@H]6CCCN6C(=O)[C@H](NC(=O)NC6CC6)c6ccccc6)[nH]5)cc4)ncc3c2)[nH]1)C1CCOCC1 [compound 145] | < 1 | – | – |
| COC(=O)N[C@H](C(=O)N1CCC[C@H]1C(=O)NCc1ccc(-c2ccc3cc(-c4cnc([C@@H]5CCCN5C(=O)[C@@H](NC(=O)OC)[C@@H](C)OC)[nH]4)ccc3c2)cc1)[C@@H](C)OC [compound 568] | – | 10 to 999 | – |
| COC(=O)N[C@H](C(=O)N1CCC[C@H]1c1nc(-c2ccc3nc(-c4ccc(-c5cnc([C@@H]6CCCN6C(=O)[C@@H](NC(=O)OC)C(C)C)[nH]5)cc4)cc(OC)c3c2)c[nH]1)C(C)C [compound 79] | < 1 | – | – |
| COC(=O)N[C@H](C(=O)N1CCC[C@H]1C(=O)NCc1ccc(-c2ccc3cc(-c4cnc([C@@H]5CCCN5C(=O)[C@@H](NC(=O)OC)C(C)C)[nH]4)ccc3c2)cc1)C(C)C [compound 567] | – | 10 to 999 | – |
| COC(=O)N[C@@H](C(=O)N1CCC[C@H]1CNC(=O)c1ccc(-c2ccc3cc(-c4cnc([C@@H]5CCCN5C(=O)[C@H](NC(=O)OC)c5ccccc5)[nH]4)ccc3n2)cc1)c1ccccc1 [compound 545] | – | < 1 | – |
| COC(=O)N[C@H](C(=O)N1CCC[C@H]1c1nc2ccc(-c3ccc4cc(-c5ccc6nc([C@@H]7CCCN7C(=O)[C@@H](NC(=O)OC)C7CCOCC7)[nH]c6c5)ccc4c3)cc2[nH]1)C(C)C [compound 282] | < 1 | – | – |
| COC(=O)N[C@H](C(=O)N1CCC[C@H]1c1ncc(-c2cnc3cc(-c4ccc5nc([C@@H]6CCCN6C(=O)[C@@H](NC(=O)OC)C(C)C)[nH]c5c4)ccc3c2)[nH]1)C(C)C [compound 187] | < 1 | – | – |
| COC(=O)N[C@H](C(=O)N1CCC[C@H]1c1ncc(-c2cnc3cc(-c4ccc(-c5cnc([C@@H]6CCCN6C(=O)[C@@H](NC(=O)OC)[C@@H](C)OC)[nH]5)cc4)ccc3c2)[nH]1)C(C)C [compound 488] | – | < 1 | – |
| CC[C@H](C)[C@H](NC(=O)OC)C(=O)N1CCC[C@H]1c1ncc(-c2ccc3cc(-c4cc5[nH]c([C@@H]6CCCN6C(=O)[C@@H](NC(=O)OC)[C@@H](C)CC)nc5cc4F)ccc3c2)[nH]1 [compound 703] | – | < 1 | – |
| COC(=O)N[C@@H](C(=O)N1CCC[C@H]1c1nc(-c2ccc3nc(-c4ccc(-c5cnc([C@@H]6CCCN6C(=O)[C@H](NC(=O)OC)c6ccccc6)[nH]5)c(F)c4)ccc3c2)c[nH]1)c1ccccc1 [compound 109] | < 1 | – | – |
| COC(=O)N[C@H](C(=O)N1CCC[C@H]1C(=O)NCc1ccc(-c2ccc3cc(-c4cnc([C@@H]5CCCN5C(=O)[C@@H](NC(=O)OC)C5CCOCC5)[nH]4)ccc3c2)cc1)C1CCOCC1 [compound 569] | – | < 1 | – |
| COC(=O)N[C@H](C(=O)N1CCC[C@H]1c1ncc(-c2ccc3cc(-c4ccc5nc([C@@H]6COCCN6C(=O)[C@@H](NC(=O)OC)C(C)C)[nH]c5c4)ccc3c2)[nH]1)C(C)C [compound 222] | < 1 | – | – |
| CNC(=O)N[C@@H](C(=O)N1CCC[C@H]1c1ncc(-c2ccc(-c3ccc4cc(-c5c[nH]c([C@@H]6CCCN6C(=O)[C@@H](NC(=O)OC)C(C)C)n5)ccc4n3)cc2)[nH]1)c1ccccc1 [compound 31] | < 1 | – | – |
| COC(=O)N[C@H](C(=O)N1CCC[C@H]1c1ncc(-c2ccc3cc(-c4ccc5nc([C@@H]6CCCN6C(=O)[C@@H](c6ccccc6)N6CCOCC6)[nH]c5c4)ccc3c2)[nH]1)C(C)C [compound 213] | < 1 | – | – |
| COC(=O)N[C@H](C(=O)N1CCC[C@H]1c1nc(-c2ccc3cc(-c4ccc(-c5cnc([C@@H]6CCCN6C(=O)[C@@H](NC(=O)OC)C(C)C)[nH]5)cc4C)ccc3c2)c[nH]1)C(C)C [compound 85] | < 1 | – | – |
